Patent US20240261271A1, “APPLICATION OF HYDRONIDONE IN PREPARATION OF DRUG FOR TREATING OR PREVENTING CHRONIC HEPATITIS B WITH LIVER FIBROSIS” (priority 2021, published 2024)
Values joined by “and” are separate entries in the source; they are usually repeats but may differ in a detail not shown here. Equal values may be shown once.

Test system: chronic hepatitis B with hepatic fibrosis
Assay: Phase II clinical study: hepatic fibrosis Ishak score by liver biopsy, before and after 52 weeks of treatment on entecavir basic treatment
Assay type: in vivo, human
Settings: for Ishak score 4 points, n(%) / Ishak score 5 points, n(%) / Ishak score 6 points, n(%) / Hepatic fibrosis Ishak score, Mean (SD) / Hepatic fibrosis Ishak score, Median / Ishak score 0 point, n(%) / Ishak score 1 point, n(%) / Ishak score 2 points, n(%) / Ishak score 3 points, n(%) / Progressive Ishak score (increases by ≥1 compared with the baseline) / Reversed Ishak score (decreases by ≥1 point compared with the baseline) / Stable Ishak score (unchanged compared with the baseline): 52 weeks of treatment; for Rate difference (B-C) % and 95% CI, Ishak score decreased by ≥1: 360 mg group minus 180 mg group; for Rate difference (B-C) % and 95% CI, Ishak score decreased by ≥1 / Rate difference (B-D) % and 95% CI, Ishak score decreased by ≥1 / Rate difference (A-B) % and 95% CI, Ishak score decreased by ≥1 / Rate difference (A-C) % and 95% CI, Ishak score decreased by ≥1 / Rate difference (A-D) % and 95% CI, Ishak score decreased by ≥1: 52 weeks; for Rate difference (B-D) % and 95% CI, Ishak score decreased by ≥1: 360 mg group minus 270 mg group; for Rate difference (A-C) % and 95% CI, Ishak score decreased by ≥1: placebo group minus 180 mg group; for Rate difference (A-D) % and 95% CI, Ishak score decreased by ≥1: placebo group minus 270 mg group
Procedure: This is a randomized, double-blind, placebo-controlled, multicenter, and dose-finding phase II clinical study with foundational treatment. In the clinical trial, three different dose test groups and a placebo control group were set on the basis of the entecavir capsule antiviral treatment, and the planned sample amount of each group was 60 cases, totaling 240 cases. The three dose test groups were 180 mg group, 270 mg group, and 360 mg group, respectively. […]

[1] = 270 mg group, PPS, baseline Ishak score ≥3
[2] = 270 mg group, PPS, all subjects
[3] = 270 mg group, PPS, screening period-follow-up 15 (52 weeks), baseline Ishak score ≥3
[4] = 360 mg group, FAS, 52 weeks of treatment vs baseline, all subjects
[5] = 360 mg group, FAS, all subjects
[6] = 360 mg group, FAS, baseline Ishak score ≥3
[7] = 360 mg group, FAS, screening period-follow-up 15 (52 weeks), baseline Ishak score ≥3
[8] = 360 mg group, PPS, 52 weeks of treatment vs baseline, all subjects
[9] = 360 mg group, PPS, all subjects
[10] = 360 mg group, PPS, baseline Ishak score ≥3
[11] = 360 mg group, PPS, screening period-follow-up 15 (52 weeks), baseline Ishak score ≥3
[12] = Group B/C/D combined, FAS, baseline Ishak score ≥2
[13] = Group B/C/D combined, FAS, screening period-follow-up 15 (52 weeks), baseline Ishak score ≥2
[14] = Group B/C/D combined, PPS, baseline Ishak score ≥2
[15] = Group B/C/D combined, PPS, screening period-follow-up 15 (52 weeks), baseline Ishak score ≥2

Cc1ccc(=O)n(-c2ccc(O)cc2)c1 [hydronidone]
Ishak score 4 points, n(%) [1]: 5(20.00) n(%) | Ishak score 5 points, n(%) [1]: 5(20.00) n(%) | Ishak score 6 points, n(%) [1]: 2(8.00) n(%) | Ishak score change, Baseline-52 weeks of treatment, Mean (SD) [2]: 0.91(1.15) | Ishak score change, Baseline-52 weeks of treatment, Median [2]: 1.00 | Ishak score decreased by <1, n(%) [3]: 7(28.00) n(%) | Ishak score decreased by ≥1, n(%) [3]: 18(72.00) n(%) | Rate difference (B-C) % and 95% CI, Ishak score decreased by ≥1 (FAS, all subjects): 3.43(−17.12, 23.60) % | Rate difference (B-C) % and 95% CI, Ishak score decreased by ≥1 (FAS, baseline Ishak score ≥3): 4.45(−20.88, 29.28) % | Rate difference (B-C) % and 95% CI, Ishak score decreased by ≥1 (PPS, all subjects): 5.72(−16.89, 27.53) % | Rate difference (B-C) % and 95% CI, Ishak score decreased by ≥1 (PPS, baseline Ishak score ≥3): 8.91(−17.46, 34.07) % | Rate difference (B-D) % and 95% CI, Ishak score decreased by ≥1 (FAS, all subjects): −12.20(−32.01, 9.10) % | Rate difference (B-D) % and 95% CI, Ishak score decreased by ≥1 (FAS, baseline Ishak score ≥3): −5.67(−29.01, 18.67) % | Rate difference (B-D) % and 95% CI, Ishak score decreased by ≥1 (PPS, all subjects): −12.77(−33.83, 9.98) % | Rate difference (B-D) % and 95% CI, Ishak score decreased by ≥1 (PPS, baseline Ishak score ≥3): −4.00(−27.91, 20.54) % | Ishak score decreased by <1, n(%) [4]: 23(56.10) n(%) | Ishak score decreased by ≥1, n(%) [4]: 18 (43.90%) n(%) and 18(43.90) n(%) | Hepatic fibrosis Ishak score, Mean (SD) [5]: 2.83(1.45) | Hepatic fibrosis Ishak score, Median [5]: 3.00 | Ishak score 0 point, n(%) [5]: 0(0.00) n(%) | Ishak score 1 point, n(%) [5]: 10(24.39) n(%) | Ishak score 2 points, n(%) [5]: 8(19.51) n(%) | Ishak score 3 points, n(%) [5]: 9(21.95) n(%) | Ishak score 4 points, n(%) [5]: 8(19.51) n(%) | Ishak score 5 points, n(%) [5]: 5(12.20) n(%) | Ishak score 6 points, n(%) [5]: 1(2.44) n(%) | Progressive Ishak score (increases by ≥1 compared with the baseline) [5]: 5 (12.20%) n(%) and 5(12.20) n(%) | Reversed Ishak score (decreases by ≥1 point compared with the baseline) [5]: 18(43.90) n(%) | Stable Ishak score (unchanged compared with the baseline) [5]: 18 (43.90%) n(%) and 18(43.90) n(%) | Ishak score 0 point, n(%) [6]: 0(0.00) n(%) | Ishak score 1 point, n(%) [6]: 4(13.79) n(%) | Ishak score 2 points, n(%) [6]: 4(13.79) n(%) | Ishak score 3 points, n(%) [6]: 8(27.59) n(%) | Ishak score 4 points, n(%) [6]: 7(24.14) n(%) | Ishak score 5 points, n(%) [6]: 5(17.24) n(%) | Ishak score 6 points, n(%) [6]: 1(3.45) n(%) | Ishak score change, Baseline-52 weeks of treatment, Mean (SD) [5]: 0.56(1.25) | Ishak score change, Baseline-52 weeks of treatment, Median [5]: 0.00 | Ishak score decreased by <1, n(%) [7]: 12(41.38) n(%) | Ishak score decreased by ≥1, n(%) [7]: 17(58.62) n(%) | Ishak score decreased by <1, n(%) [8]: 16(47.06) n(%) | Ishak score decreased by ≥1, n(%) [8]: 18 (52.94%) n(%) and 18(52.94) n(%) | Hepatic fibrosis Ishak score, Mean (SD) [9]: 2.82(1.49) | Hepatic fibrosis Ishak score, Median [9]: 3.00 | Ishak score 0 point, n(%) [9]: 0(0.00) n(%) | Ishak score 1 point, n(%) [9]: 9(26.47) n(%) | Ishak score 2 points, n(%) [9]: 6(17.65) n(%) | Ishak score 3 points, n(%) [9]: 7(20.59) n(%) | Ishak score 4 points, n(%) [9]: 7(20.59) n(%) | Ishak score 5 points, n(%) [9]: 4(11.76) n(%) | Ishak score 6 points, n(%) [9]: 1(2.94) n(%) | Progressive Ishak score (increases by ≥1 compared with the baseline) [9]: 5 (14.71%) n(%) and 5(14.71) n(%) | Reversed Ishak score (decreases by ≥1 point compared with the baseline) [9]: 18(52.94) n(%) | Stable Ishak score (unchanged compared with the baseline) [9]: 11 (32.35%) n(%) and 11(32.35) n(%) | Ishak score 0 point, n(%) [10]: 0(0.00) n(%) | Ishak score 1 point, n(%) [10]: 4(16.00) n(%) | Ishak score 2 points, n(%) [10]: 4(16.00) n(%) | Ishak score 3 points, n(%) [10]: 6(24.00) n(%) | Ishak score 4 points, n(%) [10]: 6(24.00) n(%) | Ishak score 5 points, n(%) [10]: 4(16.00) n(%) | Ishak score 6 points, n(%) [10]: 1(4.00) n(%) | Ishak score change, Baseline-52 weeks of treatment, Mean (SD) [9]: 0.68(1.34) | Ishak score change, Baseline-52 weeks of treatment, Median [9]: 1.00 | Ishak score decreased by <1, n(%) [11]: 8(32.00) n(%) | Ishak score decreased by ≥1, n(%) [11]: 17(68.00) n(%) | Rate difference (A-B) % and 95% CI, Ishak score decreased by ≥1 (Group A vs Group B/C/D combined, FAS, baseline Ishak score ≥2): −24.09(−40.50, −4.45) % | Rate difference (A-B) % and 95% CI, Ishak score decreased by ≥1 (Group A vs Group B/C/D combined, PPS, baseline Ishak score ≥2): −32.29(−48.91, −12.08) % | Ishak score 0 point, n(%) [12]: 5(4.95) n(%) | Ishak score 1 point, n(%) [12]: 20(19.80) n(%) | Ishak score 2 points, n(%) [12]: 17(16.83) n(%) | Ishak score 3 points, n(%) [12]: 18(17.82) n(%) | Ishak score 4 points, n(%) [12]: 17(16.83) n(%) | Ishak score 5 points, n(%) [12]: 17(16.83) n(%) | Ishak score 6 points, n(%) [12]: 7(6.93) n(%) | Ishak score decreased by <1, n(%) [13]: 43(42.57) n(%) | Ishak score decreased by ≥1, n(%) [13]: 58(57.43) n(%) | Ishak score 0 point, n(%) [14]: 5(5.75) n(%) | Ishak score 1 point, n(%) [14]: 20(22.99) n(%) | Ishak score 2 points, n(%) [14]: 12(13.79) n(%) | Ishak score 3 points, n(%) [14]: 14(16.09) n(%) | Ishak score 4 points, n(%) [14]: 16(18.39) n(%) | Ishak score 5 points, n(%) [14]: 14(16.09) n(%) | Ishak score 6 points, n(%) [14]: 6(6.90) n(%) | Ishak score decreased by <1, n(%) [15]: 29(33.33) n(%) | Ishak score decreased by ≥1, n(%) [15]: 58(66.67) n(%) | Rate difference (A-C) % and 95% CI, Ishak score decreased by ≥1 (FAS, all subjects): −14.89(−33.32, 4.99) % | Rate difference (A-C) % and 95% CI, Ishak score decreased by ≥1 (FAS, baseline Ishak score ≥3): −18.17(−42.04, 9.11) % | Rate difference (A-C) % and 95% CI, Ishak score decreased by ≥1 (PPS, all subjects): −21.03(−40.20, 0.26) % | Rate difference (A-C) % and 95% CI, Ishak score decreased by ≥1 (PPS, baseline Ishak score ≥3): −23.09(−46.75, 5.09) % | Rate difference (A-D) % and 95% CI, Ishak score decreased by ≥1 (FAS, all subjects): −30.52% and −30.52(−48.12, −9.50) % | Rate difference (A-D) % and 95% CI, Ishak score decreased by ≥1 (FAS, baseline Ishak score ≥3): −28.29(−50.04, −1.45) % | Rate difference (A-D) % and 95% CI, Ishak score decreased by ≥1 (PPS, all subjects): −39.52% and −39.52(−56.83, −17.26) % | Rate difference (A-D) % and 95% CI, Ishak score decreased by ≥1 (PPS, baseline Ishak score ≥3): −36.00(−56.89, −8.38) % | Rate difference (A-B) % and 95% CI, Ishak score decreased by ≥1 (placebo group minus 360 mg group, FAS, all subjects): −18.32(−36.76, 1.96) % | Rate difference (A-B) % and 95% CI, Ishak score decreased by ≥1 (placebo group minus 360 mg group, FAS, baseline Ishak score ≥3): −22.62(−44.98, 3.82) % | Rate difference (A-B) % and 95% CI, Ishak score decreased by ≥1 (placebo group minus 360 mg group, PPS, all subjects): −26.75% and −26.75(−45.78, −4.75) % | Rate difference (A-B) % and 95% CI, Ishak score decreased by ≥1 (placebo group minus 360 mg group, PPS, baseline Ishak score ≥3): −32.00(−53.61, −4.37) % | Rate difference (A-B) % and 95% CI, Ishak score decreased by ≥1 (placebo group vs 270 mg group + 360 mg group, FAS, baseline Ishak score = 6): −65.00(−87.03, −10.74) % | Rate difference (A-B) % and 95% CI, Ishak score decreased by ≥1 (placebo group vs 270 mg group + 360 mg group, FAS, baseline Ishak score ≥3): −25.40(−44.93, −2.00) % | Rate difference (A-B) % and 95% CI, Ishak score decreased by ≥1 (placebo group vs 270 mg group + 360 mg group, FAS, baseline Ishak score ≥4): −23.80(−46.21, 2.59) % | Rate difference (A-B) % and 95% CI, Ishak score decreased by ≥1 (placebo group vs 270 mg group + 360 mg group, FAS, baseline Ishak score ≥5): −15.38(−42.13, 13.79) % | Rate difference (A-B) % and 95% CI, Ishak score decreased by ≥1 (placebo group vs 270 mg group + 360 mg group, PPS, baseline Ishak score = 6): −65.00(−87.03, −10.74) % | Rate difference (A-B) % and 95% CI, Ishak score decreased by ≥1 (placebo group vs 270 mg group + 360 mg group, PPS, baseline Ishak score ≥3): −34.00(−53.15, −10.15) % | Rate difference (A-B) % and 95% CI, Ishak score decreased by ≥1 (placebo group vs 270 mg group + 360 mg group, PPS, baseline Ishak score ≥4): −30.06(−51.94, −3.18) % | Rate difference (A-B) % and 95% CI, Ishak score decreased by ≥1 (placebo group vs 270 mg group + 360 mg group, PPS, baseline Ishak score ≥5): −20.83(−47.05, 8.90) %
